According to patent US10960036B2, “Pharmaceutical composition for preventing and treating alpha herpes virus infection, containing, as active ingredient, Elaeocarpus sylvestris extract or fraction thereof” (priority 2016, dated 2021):

System: varicella-zoster virus (VZV)
Test: Expression of VZV replication-related genes (gB, ORF62) in infected MRC-5 cells, real-time PCR
Format: cell-based
Conditions: 50 μg/mL, 3 days after infection
Method: Viruses used to measure anti-replication activity were varicella-zoster virus (VZV), herpes simplex virus-1 (HSV-1) and herpes simplex virus-2 (HSV-2), which were obtained from the American Type Culture Collection (ATCC), and MRC-5 and Vero cells were also obtained from the ATCC and cultured. In a 5% CO2 incubator at 37° C., Vero cells were cultured in RPMI1640 medium containing 10% fetal bovine serum and 25 mM HEPES (2-[4-(2-hydroxyethyl) piperazin-1-yl] ethanesulfonic acid), and MRC-5 cells were cultured in MEM medium containing 10% fetal bovine serum and 25 mM HEPES.
Next, on 3 days after the infection, the cells were collected, and the inhibitory effect on viral replication was analyzed by real-time PCR using VZV glycoprotein B (gB) and open reading frame 62 (ORF62) DNAs.
MRC-5 cells were infected with VZV by culturing them with VZV-infected cells at a cell-to-cell ratio of 1:8, and treated with the Elaeocarpus sylvestris extract and its fractions (extract, hexane (Hx), dichloromethane (MC), ethyl acetate (EA), butanol (BuOH), and distilled water (DW) 50 μg/mL). On 3 days after the infection, the cells were collected, and the inhibitory effect against viral replication was analyzed by real-time PCR using VZV glycoprotein B (gB) and open reading frame 62 (ORF62) DNAs.
In order to analyze the VZV replication inhibitory effect and target of Elaeocarpus sylvestris extract components, MRC-5 cells were infected with VZV by culturing them with VZV-infected cells at a cell-to-cell ratio of 1:8, and treated with 50 μg/mL of each of Elaeocarpus sylvestris extract fractions (DS-1, DS-2, DS-3 and DS-4). On 3 days after the infection, the cells were collected, and the viral replication inhibitory effect of the fractions was analyzed by real-time PCR using VZV glycoprotein B (gB) and open reading frame 62 (ORF62) DNAs.

## COC(=O)c1cc(O)c(O)c(O)c1 (single isomer, unassigned) [DS-1, Methyl gallate]
  expression of VZV glycoprotein B (gB): decreased
  expression of VZV open reading frame 62 (ORF62): decreased

## COC(=O)c1cc(O)c(O)c(O)c1 (single isomer, unassigned) [DS-2, Methyl gallate]
  expression of VZV glycoprotein B (gB): decreased
  expression of VZV open reading frame 62 (ORF62): decreased

## O=C1O[C@H]2[C@@H]3OC(=O)c4cc(O)c(O)c(O)c4-c4c(cc(O)c(O)c4O)C(=O)OC[C@H]2O[C@@H](OC(=O)c2cc(O)c(O)c(O)c2)[C@@H]3OC(=O)c2cc(O)c(O)c3c2[C@@H]2C1=CC(=O)[C@](O)(O3)C2(O)O [DS-3, Geraniin]
  expression of VZV glycoprotein B (gB): decreased
  expression of VZV open reading frame 62 (ORF62): decreased

## Casuarictin [DS-4]
  expression of VZV glycoprotein B (gB): decreased
  expression of VZV open reading frame 62 (ORF62): decreased
